Test results taken from BindingDB's records for doi:10.1016/j.bmcl.2011.01.079 (The Scripps Research Institute, 2011).

Molecular target: Transcription factor Jun (Homo sapiens, UniProt P05412)
Test: Inhibition of c-Jun

Chain of Transcription factor Jun (P05412 whole entry): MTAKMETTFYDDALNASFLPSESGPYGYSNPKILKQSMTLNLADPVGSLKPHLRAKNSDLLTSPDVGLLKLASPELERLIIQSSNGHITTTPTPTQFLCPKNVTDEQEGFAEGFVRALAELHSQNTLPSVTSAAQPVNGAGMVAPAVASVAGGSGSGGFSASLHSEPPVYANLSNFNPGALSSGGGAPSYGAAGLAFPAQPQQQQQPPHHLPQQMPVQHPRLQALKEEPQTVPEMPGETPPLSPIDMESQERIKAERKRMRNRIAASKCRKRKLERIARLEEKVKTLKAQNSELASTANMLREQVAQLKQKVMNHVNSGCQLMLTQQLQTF

Compound: Cn1cc(-c2ccc3cnc(Nc4ccc(-n5cnc(N6CCOCC6)n5)cc4)nc3c2C2CC2)cn1 [8-cyclopropyl-7-(1-methyl-1H-pyrazol-4-yl)-N-(4-(3-morpholino-1H-1,2,4-triazol-1-yl)phenyl)quinazolin-2-amine]
- IC50: 0.13 µM

Compound: c1ccc(-c2cccc3cnc(Nc4ccc(-n5cnc(N6CCOCC6)n5)cc4)nc23)cc1 [N-(4-(3-morpholino-1H-1,2,4-triazol-1-yl)phenyl)-8-phenylquinazolin-2-amine]
- IC50: 1.4 µM

Compound: Cc1ccc(-c2cccc3cnc(N[C@H]4CC[C@@H](C(=O)N5CCCC5)CC4)nc23)cn1 [((cis)-4-(8-(6-methylpyridin-3-yl)quinazolin-2-ylamino)cyclohexyl)(pyrrolidin-1-yl)methanone]
- IC50: 3 µM

Compound: Cc1ccc(-c2cccc3cnc(NC4CCC(O)CC4)nc23)cn1 (stereo unspecified) [4-(8-(6-methylpyridin-3-yl)quinazolin-2-ylamino)cyclohexanol]
- IC50: 0.93 µM

Compound: Cc1ncn(-c2ccc(Nc3ncc4cccc(-c5nccs5)c4n3)cc2)n1 [N-(4-(3-methyl-1H-1,2,4-triazol-1-yl)phenyl)-8-(thiazol-2-yl)quinazolin-2-amine]
- IC50: 0.2 µM

Compound: Cn1cc(-c2ccc3cnc(Nc4ccc(-n5cnc(N6CCOCC6)n5)cc4)nc3c2Cl)cn1 [8-chloro-7-(1-methyl-1H-pyrazol-4-yl)-N-(4-(3-morpholino-1H-1,2,4-triazol-1-yl)phenyl)quinazolin-2-amine]
- IC50: 0.1 µM

Compound: Cn1cc(-c2ccc3cnc(Nc4ccc(-n5cnc(N6CCOCC6)n5)cc4)nc3c2-c2cnn(C)c2)cn1 [7,8-bis(1-methyl-1H-pyrazol-4-yl)-N-(4-(3-morpholino-1H-1,2,4-triazol-1-yl)phenyl)quinazolin-2-amine]
- IC50: 0.04 µM

Compound: c1cc(-c2nccs2)c2nc(Nc3ccc(-n4cnc(N5CCOCC5)n4)cc3)ncc2c1 [N-(4-(3-morpholino-1H-1,2,4-triazol-1-yl)phenyl)-8-(thiazol-2-yl)quinazolin-2-amine]
- IC50: 3 µM

Compound: Cn1cc(-c2ccc3cnc(Nc4ccc(-n5cnc(N6CCOCC6)n5)cc4)nc3c2)cn1 [7-(1-methyl-1H-pyrazol-4-yl)-N-(4-(3-morpholino-1H-1,2,4-triazol-1-yl)phenyl)quinazolin-2-amine]
- IC50: 0.31 µM

Compound: Cn1cc(-c2ccc3cnc(Nc4ccc(-n5cnc(-c6ccccn6)n5)cc4)nc3c2)cn1 [7-(1-methyl-1H-pyrazol-4-yl)-N-(4-(3-(pyridin-2-yl)-1H-1,2,4-triazol-1-yl)phenyl)quinazolin-2-amine]
- IC50: 0.29 µM

Compound: Cc1ccc(-c2cccc3cnc(Nc4ccc5c(c4)OCO5)nc23)cn1 [N-(benzo[d][1,3]dioxol-5-yl)-8-(6-methylpyridin-3-yl)quinazolin-2-amine]
- IC50: 0.63 µM

Compound: COc1ccc(-c2cccc3cnc(Nc4ccc(-n5cnc(-c6ccccn6)n5)cc4)nc23)cc1F [8-(3-fluoro-4-methoxyphenyl)-N-(4-(3-(pyridin-2-yl)-1H-1,2,4-triazol-1-yl)phenyl)quinazolin-2-amine]
- IC50: 5.1 µM

Compound: Cn1cc(-c2cccc3cnc(Nc4ccc(-n5cnc(N6CCOCC6)n5)cc4)nc23)cn1 [8-(1-methyl-1H-pyrazol-4-yl)-N-(4-(3-morpholino-1H-1,2,4-triazol-1-yl)phenyl)quinazolin-2-amine]
- IC50: 0.33 µM

Compound: COc1ccc(-c2cccc3cnc(Nc4ccc(-n5cnc(N6CCOCC6)n5)cc4)nc23)cc1F [8-(3-fluoro-4-methoxyphenyl)-N-(4-(3-morpholino-1H-1,2,4-triazol-1-yl)phenyl)quinazolin-2-amine]
- IC50: 0.25 µM

Compound: CC(C)n1cc(-c2ccc3cnc(Nc4ccc(-n5cnc(N6CCOCC6)n5)cc4)nc3c2Cl)cn1 [8-chloro-7-(1-isopropyl-1H-pyrazol-4-yl)-N-(4-(3-morpholino-1H-1,2,4-triazol-1-yl)phenyl)quinazolin-2-amine]
- IC50: 0.62 µM

Compound: Cc1ccc(-c2ncn(-c3ccc(Nc4ncc5ccc(-c6cn[nH]c6)cc5n4)cc3)n2)cn1 [N-(4-(3-(6-methylpyridin-3-yl)-1H-1,2,4-triazol-1-yl)phenyl)-7-(1H-pyrazol-4-yl)quinazolin-2-amine]
- IC50: 0.04 µM

Compound: COc1ccc(-c2cccc3cnc(Nc4ccc(-n5cnc(C)n5)cc4)nc23)cc1F [8-(3-fluoro-4-methoxyphenyl)-N-(4-(3-methyl-1H-1,2,4-triazol-1-yl)phenyl)quinazolin-2-amine]
- IC50: 0.5 µM

Compound: c1cc(-n2cnc(N3CCOCC3)n2)ccc1Nc1ncc2ccc(-c3cn[nH]c3)cc2n1 [N-(4-(3-morpholino-1H-1,2,4-triazol-1-yl)phenyl)-7-(1H-pyrazol-4-yl)quinazolin-2-amine]
- IC50: 0.12 µM

Compound: Cn1cc(-c2ccc3cnc(Nc4ccc(-n5cnc(N6CCOCC6)n5)cc4)nc3c2-c2ccccc2)cn1 [7-(1-methyl-1H-pyrazol-4-yl)-N-(4-(3-morpholino-1H-1,2,4-triazol-1-yl)phenyl)-8-phenylquinazolin-2-amine]
- IC50: 0.04 µM

Compound: Cc1c(-c2cnn(C)c2)ccc2cnc(Nc3ccc(-n4cnc(N5CCOCC5)n4)cc3)nc12 [8-methyl-7-(1-methyl-1H-pyrazol-4-yl)-N-(4-(3-morpholino-1H-1,2,4-triazol-1-yl)phenyl)quinazolin-2-amine]
- IC50: 0.16 µM

Compound: COc1c(-c2cnn(C)c2)ccc2cnc(Nc3ccc(-n4cnc(N5CCOCC5)n4)cc3)nc12 [8-methoxy-7-(1-methyl-1H-pyrazol-4-yl)-N-(4-(3-morpholino-1H-1,2,4-triazol-1-yl)phenyl)quinazolin-2-amine]
- IC50: 0.05 µM
